Source: US4439460A, “Dipeptide sweetener sulfate and sulfonate salts” (G. D. Searle & Co., priority 1982, dated 1984)
Where a SMILES comes first, the peptide text is derived from it.

How the values were obtained:
[1] = Thermal stability examination: oven at 170° C., HPLC analysis; assay type: physicochemical; details: for degradation: after seven, fifteen or twenty-five minutes heating at about 170° C.; for % Degradation, 7 Minutes (170° C.) / % Degradation, 15 Minutes (170° C.) / Physical Appearance after 25 Minutes at 170° C. / % Degradation, 25 Minutes (170° C.): oven 170° C.; for % Degradation, 7 Minutes (170° C.) / % Degradation, 15 Minutes (170° C.) / % Degradation, 25 Minutes (170° C.): HPLC
Method: Samples of the salts of Examples 1 and 2 having weights equivalent to about 40 mg of APM and reference samples (40 mg) of free base aspartylphenylalanine methyl ester (APM) and the corresponding hydrochloride dihydrogen phosphate (H2 PO4) and bisulfate (HSO4) salts having weights equivalent to about 40 mg APM were placed in individual 10 ml beakers and put in an oven pre-heated to 170° C. The samples were allowed to bake for predetermined times (7, 15 and 25 minutes) after which they were removed from the oven and analyzed by HPLC using the foregoing HPLC methods.

[2] = Thermal stability studies in baked cake: HPLC of core samples; assay type: physicochemical; details: for sweetener recovery: typical cake test, baked at 350° Fahrenheit for about thirty to forty-five minutes
Method: In this test sweetened yellow cakes are prepared following well-known procedures and using the appropriate ingredients but substituting dipeptide sweetener for sugar. Use of examples of salts of the invention and reference dipeptides and salts such as the hydrochloride will produce eight-inch yellow cakes which are ready for sweetener content comparison. The cakes are typically baked at 350° Fahrenheit (about 175° C.) for about thirty to forty-five minutes. Taking core sections of the sample cakes and analyzing for dipeptide sweetener content allows determination of the percent degradation of the form of the dipeptide sweetener used. In a typical thermal stability cake test, a cake baked with the sulfate salt of the invention will have about […] more dipeptide sweetener in it than a cake baked with the hydrochloride salt; compare, for example, about 34 percent sweetener recovery for the sulfate with about 25 percent for the hydrochloride.
(§1) Yellow cakes were baked following a standard recipe, but substituting a dipeptide sweetener or its salt and Maltrin M-100 (a modified maltodextrin starch bulking agent) for sugar. The liquid ingredients were creamed together then folded into a sifted mixture of the dry ingredients. The resulting dough was placed in a greased 8-inch cake pan and baked at 350° for 40 minutes. Three cakes were baked in this manner; cake 1 contained (APM-H)2 SO4, cake 2 contained APM-HCl, cake 3 contained APM.
The liquid ingredients included milk (193 g), shortening (54 g), egg (53 g, 1 egg), vanilla (3.6 g); the dry ingredients included flour (167 g), baking powder (6.9 g), salt (3.4 g), maltrin M-100 (126.5 g) dipeptide sweetener salt: (APM-H)2 SO4 (cake 1) (1.2 g), APM-HCl (cake 2) (1.2 g), APM (cake 3) (1.0 g).
Core samples were taken from each of the three cakes and the samples were analyzed by HPLC methods as described in Example 1.

[3] = Taste of baked dipeptide sweetened yellow cakes; details: single blind conditions
Method: A taste test of the baked dipeptide sweetened yellow cakes can also be conducted under standard single blind conditions.
as §1

[4] = Rate of dissolution studies in beverage media; assay type: physicochemical; details: for Media Dissolution Times, medium 4: ambient temperature coffee (80 ml); for Media Dissolution Times, medium 4 / Media Dissolution Times, medium 3 / Media Dissolution Times, medium 2: with stirring; for Media Dissolution Times, medium 4 / Media Dissolution Times, medium 1 / Media Dissolution Times, medium 3 / Media Dissolution Times, medium 2: salt equimolar with 57 mg APM; for Media Dissolution Times, medium 1: refrigerated carbonated water (240 ml), without stirring; for Media Dissolution Times, medium 3: refrigerated coffee (80 ml); for Media Dissolution Times, medium 2: refrigerated lemonade with no sugar (240 ml)
Method: Samples of the salts of Examples 1, 2 and the APM hydrochloride and corresponding bisulfate and dihydrogen phosphate salts were employed to determine relative dissolution rates in beverage media. The amount of salt used in each instance was calculated to be equimolar with 57 mg of APM. The tests were conducted in four types of liquid beverage media; (1) refrigerated carbonated water (240 ml), (2) refrigerated lemonade without sugar (240 ml), (3) refrigerated coffee (80 ml), (4) coffee at ambient temperature (80 ml). The dissolution rates in medium 1 were measured without stirring and the rates in 2, 3 and 4 were measured with stirring. Dissolution was deemed complete when solid particles or a cloudy appearing medium were no longer present.

[5] = Shelf life determination: accelerated storage, HPLC assay; assay type: physicochemical
Method: Two sets of samples of the APM sulfate salt of Example 1, APM hydrochloride and APM each having a weight equivalent to […] APM were placed in ovens which contained an open beaker of water. The first set of samples was heated at 70° and 100 percent humidity for 14.7 days. The second set of samples was heated at 85° and atmospheric humidity for 14.7 days. The samples were periodically analyzed by the HPLC method as described above in order to determine percent decomposition.

Structure (SMILES) | degradation [1] | % Degradation, 7 Minutes (170° C.) [1] [%] | % Degradation, 15 Minutes (170° C.) [1] [%] | Physical Appearance after 25 Minutes at 170° C. [1] | % Degradation, 25 Minutes (170° C.) [1] [%] | sweetener recovery [2] | Media Dissolution Times, medium 4 [4] [s] | Media Dissolution Times, medium 1 [4] [s] | Media Dissolution Times, medium 2 [4] | HPLC Assay (% composition) APM, 6.8 days ([5]; 70°, 100 percent humidity) [%] | APM % Initial (APM remaining after 14.7 days relative to the initial APM) ([5]; 70°, 100 percent humidity) [%] | HPLC Assay (% composition) AP, 14.7 days ([5]; 70°, 100 percent humidity) | HPLC Assay (% composition) APM, 14.7 days ([5]; 70°, 100 percent humidity) [%] | HPLC Assay (% composition) APM, 6.8 days ([5]; 85° C., atmospheric humidity) [%] | HPLC Assay (% composition) DKP, 6.8 days ([5]; 85° C., atmospheric humidity) [%] | APM % Initial (APM remaining after 14.7 days relative to the initial APM) ([5]; 85° C., atmospheric humidity) [%] | HPLC Assay (% composition) AP, 14.7 days ([5]; 85° C., atmospheric humidity) | HPLC Assay (% composition) APM, 14.7 days ([5]; 85° C., atmospheric humidity) [%] | HPLC Assay (% composition) DKP, 14.7 days ([5]; 85° C., atmospheric humidity) | HPLC Assay (% composition) APM, Initial ([5]; initial, before storage) [%] | also measured
COC(=O)[C@H](Cc1ccccc1)NC(=O)[C@@H](N)CC(=O)O.COC(=O)[C@H](Cc1ccccc1)NC(=O)[C@@H](N)CC(=O)O.O=S(=O)(O)O [Ex. 1, Bis(hydrogen aspartylphenylalanine methyl ester) sulfate] (H-Asp-Phe-OMe) | less than 10% | 1.3 | 0 | white cryst. powder | 5.5 | about 34% | 22 | 22 | About 0 seconds | 83.9 | 96.7 | .20% | 82.1 | 83.0 | 0.15 | 95.4 | .20% | 80.9 | .08% | 84.8 | more dipeptide sweetener in cake than a cake baked with the hydrochloride salt ([2]; typical thermal stability cake test): about 50%; cake sweetness, panel taste testing [3]: approximately equal to that of sugar; dissolution rate relative to the corresponding hydrochloride salt [4]: at least approximately five to six times faster; Media Dissolution Times, medium 3 [4]: 24 s; dissolution of a sweetening amount in refrigerated lemonade [4]: completely dissolve in refrigerated lemonade without stirring; degradation in shelf life stability tests ([5]; about 85° for about 15 days or 70° for about 15 days at 100 percent humidity): less degradation than the hydrochloride salt
COC(=O)[C@H](Cc1ccccc1)NC(=O)[C@@H](N)CC(=O)O.O=S(=O)(O)O [C, aspartylphenylalanine methyl ester bisulfate] (H-Asp-Phe-OMe) | ≤ 85% | 62.8 | 78.2 | melted colorless | 89.2 |  | 330 |  |  |  |  |  |  |  |  |  |  |  |  |  | 
COC(=O)[C@H](Cc1ccccc1)NC(=O)[C@@H](N)CC(=O)O [A, aspartylphenylalanine methyl ester] (H-Asp-Phe-OMe) | ≤ 85% | 0 | 22.2 | light-gray material | 87.6 |  |  |  |  | 95.3 | 95.9 | 0.21% | 92.6 | 95.2 | 1.6 | 94.9 | .20% | 91.7 | 2.0% | 96.6 | cake sweetness, panel taste testing [3]: little sweetness and a flat taste; HPLC Assay (% composition) DKP, 6.8 days ([5]; 70°, 100 percent humidity): 1.1%; HPLC Assay (% composition) DKP, 14.7 days ([5]; 70°, 100 percent humidity): 1.2%; HPLC Assay (% composition) DKP, Initial ([5]; initial, before storage): 1.0%
COC(=O)[C@H](Cc1ccccc1)NC(=O)[C@@H](N)CC(=O)O.Cl [B, aspartylphenylalanine methyl ester hydrochloride] (H-Asp-Phe-OMe) | at least 45% | 2 | 8.5 | melted, light-brown | 44.7 | about 25% | 90 | 120 | 52 s | 77.7 | 93.6 | .36% | 75.1 | 62.1 | 4.0 | 57.3 | 1.6% | 46.0 | 3.2% | 80.2 | Media Dissolution Times, medium 3 [4]: 94 s; dissolution of a sweetening amount in refrigerated lemonade [4]: require significant time and stirring to dissolve; HPLC Assay (% composition) AP, 6.8 days ([5]; 70°, 100 percent humidity): .33%; HPLC Assay (% composition) DKP, 6.8 days ([5]; 70°, 100 percent humidity): .25%; HPLC Assay (% composition) DKP, 14.7 days ([5]; 70°, 100 percent humidity): .60%; HPLC Assay (% composition) AP, 6.8 days ([5]; 85° C., atmospheric humidity): 1.1%
COC(=O)[C@H](Cc1ccccc1)NC(=O)[C@@H](N)CC(=O)O.O=P(O)(O)O [D] (H-Asp-Phe-OMe) |  | 0.1 | 60.6 | yellow powder | 86.6 |  | 600 |  |  |  |  |  |  |  |  |  |  |  |  |  | 
COC(=O)[C@H](Cc1ccccc1)NC(=O)[C@@H](N)CC(=O)O.CS(=O)(=O)O [Ex. 2] (H-Asp-Phe-OMe) | about 30% | 0.0 | 0.5 | off white powder | 28.0 |  | 167 | 168 | 250 s |  |  |  |  |  |  |  |  |  |  |  | 
